Consider three compounds from patent US5521208A, “Compositions and methods for the treatment of the metabolically impaired and for improved compliance” (Alcon Laboratories, Inc., priority 1993, dated 1996).

A short description of this data set: Plasma pharmacokinetics in rats following a 2 mg/kg intravenous bolus injection. The data set is classed as in vivo, male Sprague-Dawley rats. As to conditions: 2 mg/kg i.v. bolus; for AUC(0-inf): linear trapezoidal summation with extrapolation to infinity; for clearance: read-out: CLT (total plasma clearance) (converted); for half-life / k el: 2 mg/kg; for concentration at 1 h / concentration at 4 h / concentration at 8 h / concentration at 24 h / concentration at 31 h / concentration at 48 h / concentration at 72 h / concentration at 96 h / concentration at 120 h / concentration at 144 h / concentration at 168 h / concentration at 216 h: Mean ± SD (N = 3); for concentration at 96 h / concentration at 120 h / concentration at 144 h / concentration at 168 h / concentration at 216 h: ND = Not Detected (lower limit of detection 2 ng/mL). How it is done: The pharmacokinetic properties of A(±) of Example 1 were compared with those of each enantiomer, A(+) and A(-) of Example 1. The comparison was made in rats following an intravenous bolus injection.
The test articles were formulated in a 0.1N sodium carbonate solution to yield a 2 mg/mL solution. A total of 126 male Sprague-Dawley rats weighing 200-300 g were divided into three groups of 42 rats each. The animals were offered food and water ad libitum except fasting overnight prior to and for four hours after dosing. Rats in each group received a single 2 mg/kg intravenous dose of A(+) or A(-) or A(±) via the tail vein. At the following times postdose, three rats from each group were anesthetized by carbon dioxide inhalation and plasma samples were collected from each animal: 0, 1, 4, 8, 24, 31, 48, 72, 96, 120, 144, 168, 216, and 336 hours. Plasma concentrations of each drug were determined by gas chromatographic-electron capture (GC-EC) methods known to those skilled in the art, with a lower limit of detection of 2 ng/mL. See, e.g., Park, Y. H., et al., Xenobiotica 22:543-550 (1992). The values of the elimination rate constants, α,β and γ, were obtained by linear regression analysis of the log-linear portion of the plasma concentration-time curve. These constants correspond to the initial distribution, disposition and terminal elimination phases, respectively. The α and β values were obtained by the method of residuals. The corresponding half-lives (t1/2α, t1/2β and t1/2γ) were calculated by dividing 0.693 by each respective parameter. The area under the plasma concentration versus time curve from 0 to infinity (AUC..infin.) was calculated by linear trapezoidal summation with extrapolation to infinity. Total plasma clearance CLT was calculated as dose divided by AUC..infin.. The area under the first moment curve (AUMC) is the area under the curve observed for the product of time and concentration, versus time. Apparent volume of distribution at steady state (Vss) was calculated by the product of dose and AUMC, divided by (AUC..infin.)^2.

Setting [1] is: rat, plasma, iv, ND = Not Detected, read-out: t1/2γ (terminal elimination phase half-life) (converted).
Setting [2] is: rat, plasma, iv, ND = Not Detected, read-out: γ (elimination rate constant, terminal elimination phase) (converted).
The mark [3] stands for this setting: rat, plasma, iv, read-out: t1/2α (initial distribution phase half-life) (converted).
[4] abbreviates: rat, plasma, iv, read-out: t1/2β (disposition phase half-life) (converted).
The mark [5] stands for this setting: rat, plasma, iv, read-out: α (elimination rate constant, initial distribution phase) (converted).
Where [6] appears, read: rat, plasma, iv, read-out: β (elimination rate constant, disposition phase) (converted).

Where two headings read alike, the source gives them in different places.

Take `COc1cc(F)cc2c1-c1ccc(F)cc1C21NC(=O)NC1=O` (racemic) [A(±), 2,7-difluoro-4-methoxyspiro[9H-fluorene-9,4'-imidazolidine]-2',5'-dione]: the AUMC came out at 854 μg/hour^2/mL and the “elimination profile (in words)” value is reported as “kinetic profile similar to that of A(+) with the presence of a persistent elimination phase”. Where the note is “rat, plasma, iv”, the AUC(0-inf) was 60400 ng·h/mL, the clearance was 0.552 mL/min/kg, the concentration at 1 h worked out at 5080 ± 441 ng/mL and the concentration at 4 h came to 3590 ± 441 ng/mL. Under “rat, plasma, iv”, the concentration at 8 h was determined as 2420 ± 5440 ng/mL, the concentration at 24 h was 352 ± 34 ng/mL, the concentration at 31 h was determined as 194 ± 22 ng/mL and the concentration at 48 h stood at 108 ± 27 ng/mL. For the same compound, for the setting “rat, plasma, iv”, the concentration at 72 h is 3 ± 4 ng/mL, the concentration at 96 h was determined as 17 ± 4 ng/mL, the concentration at 120 h came out at 13 ± 3 ng/mL and the concentration at 144 h worked out at 11 ± 2 ng/mL. Besides, under “rat, plasma, iv”, the concentration at 168 h amounted to 5 ± 2 ng/mL and the concentration at 216 h came out at 2 ± 1 ng/mL. Besides, for the setting “rat, plasma, iv, read-out: Vss (apparent volume of distribution at steady state)”, the Vd was 0.47 L/kg. In addition, the half-life under setting [1] is 40.7 h. Moreover, under setting [2], the k el was 4.72e-06 s⁻¹. Further, the half-life under setting [3] is 5.8 h. Further, the half-life under setting [4] is 8 h. For the same compound, the k el under setting [5] is 3.28e-05 s⁻¹. In addition, the k el under setting [6] was 2.36e-05 s⁻¹.
For the compound `COc1cc(F)cc2c1-c1ccc(F)cc1[C@]21NC(=O)NC1=O` [A(-), 2,7-difluoro-4-methoxyspiro[9H-fluorene-9,4'-imidazolidine]-2',5'-dione], the AUMC is given as 402 μg/hour^2/mL and the “elimination profile (in words)” value was “lacks a slow terminal elimination phase”. For the same compound, under “compared with A(+)”, the “volume of distribution (in words)” value is given as “significantly lower volume of distribution”. For the same compound, for the setting “rat, plasma, iv”, the AUC(0-inf) is 63000 ng·h/mL, the clearance is 0.528 mL/min/kg, the concentration at 1 h amounted to 7330 ± 220 ng/mL and the concentration at 4 h amounted to 3800 ± 975 ng/mL. Under “rat, plasma, iv”, this compound had a concentration at 8 h of 2780 ± 449 ng/mL, a concentration at 24 h of 140 ± 17 ng/mL, a concentration at 31 h of 127 ± 36 ng/mL and a concentration at 48 h of 23 ± 8 ng/mL. For the same compound, the concentration at 72 h (rat, plasma, iv) was 4 ± 3 ng/mL. Besides, under setting [3], the half-life is 4.3 h. Further, under setting [4], the half-life was 8.5 h. Besides, the k el under setting [5] was 4.53e-05 s⁻¹. The k el under setting [6] was 2.25e-05 s⁻¹.
Take `COc1cc(F)cc2c1-c1ccc(F)cc1[C@@]21NC(=O)NC1=O` [A(+), 2,7-difluoro-4-methoxyspiro[9H-fluorene-9,4'-imidazolidine]-2',5'-dione]: the AUMC is on record as 965 μg/hour^2/mL; the “elimination profile (in words)” value was “triexponential elimination profile with an initial distribution phase, a disposition phase due to metabolism, and a slow terminal elimination phase”. For the setting “rat, plasma, iv”, the AUC(0-inf) was 54400 ng·h/mL, the clearance was 0.612 mL/min/kg, the concentration at 1 h was found to be 2970 ± 679 ng/mL and the concentration at 4 h came out at 2360 ± 456 ng/mL. Under “rat, plasma, iv”, this compound came in with a concentration at 8 h of 2360 ± 281 ng/mL, a concentration at 24 h of 486 ± 170 ng/mL, a concentration at 31 h of 382 ± 49 ng/mL and a concentration at 48 h of 162 ± 32 ng/mL. In addition, for the setting “rat, plasma, iv”, the concentration at 72 h worked out at 67 ± 15 ng/mL, the concentration at 96 h was determined as 33 ± 11 ng/mL, the concentration at 120 h was determined as 11 ± 4 ng/mL and the concentration at 144 h worked out at 9 ± 1 ng/mL. For the setting “rat, plasma, iv”, this compound returned a concentration at 168 h of 5 ± 3 ng/mL and a concentration at 216 h of 2 ± 1 ng/mL. Further, the half-life under setting [1] was 37.4 h. For the same compound, the k el under setting [2] is 5e-06 s⁻¹. Also, the half-life under setting [3] was 3.1 h. Further, under setting [4], the half-life was 14.5 h. Besides, the k el under setting [5] was 6.17e-05 s⁻¹. For the same compound, the k el under setting [6] was 1.33e-05 s⁻¹.

A word on the AUC(0-inf): it is the area under the concentration-time curve extrapolated to infinity. For orientation: clearance means a measure of how efficiently the substance is removed, as volume per time.
